Reference: patent publication US20170216252A1, “ANTI-BACTERIAL PYRUVATE KINASE MODULATOR COMPOUNDS, COMPOSITIONS, USES AND METHODS” (SIMON FRASER UNIVERSITY, priority 2014, published 2017)
In brackets after ≈: the same amount, converted by molar mass. Several values for one entry are separate records, joined by “and”; a condition that tells them apart may be missing. Equal values may be shown once. Read-outs that look alike come from different tables or passages of the source.

Columns and labels:
MRSA PK = target: T1, MRSA PK (Staphylococcus aureus, UniProt Q6GG09); assay: MRSA PK activity, continuous LDH-coupled assay; assay type: biochemical, S. aureus (MRSA strain Sanger 252); details: for inhibition at 10 µM: read-out: % Inhibition MRSA PK
T1 construct: His tag (pET-28a(+) vector) (N); made in house; host or cells: E. coli BL-21 (DE3)
Method in brief: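 Activity was tracked as the 340 nm absorbance fall from NADH oxidation via coupled LDH, at 30 °C for ≤5 min. Reactions began on adding 15 nM recombinant His-tagged S. aureus PK, with inhibitor DMSO kept ≤1%. Four-parameter dose–response fitting gave IC50.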

VRE#2 (2010A) = assay: Broth microdilution MIC; assay type: cell-based, vancomycin-resistant Enterococcus; details: Enterococcus; VRE#2 (2010A); read-out: MIC (μg/mL) F
Experimental: The antimicrobial activities of PK inhibitor candidates were determined using the 96-well microtiter standard 2-fold serial broth microdilution method as described by CLSI (formerly NCCLS) with the various gram-positive and gram-negative bacteria species mentioned above. Bacteria from a single colony were grown, overnight in either BHI Broth (VRE), mueller hinton broth (S. aureus 29213; MRSA USA400) or L-broth (E. coli, P. aeruginosa, S. typhimuriu, K. Pneumonia and A. baumannii). […] Culture plates were incubated for 18-24 h at 37° C., and optical density at 600 nm (OD600) was measured using a Benchmark Plus™ microplate spectrophotometer (Bio-Rad™). The absorbance control values for the series containing CAMHB and inhibitor were subtracted as background from the corresponding infected wells. The MIC was defined as the lowest concentration of test compound leading to complete inhibition of cell growth in relationship to compound-free control wells as determined by optical density. […] All assays were run in triplicate (Tables 1-6) or duplicate. Experiments were replicated at least twice to verify reproducibility using the above conditions.
The antimicrobial activity of selected compounds against the gram negative bacteria Klebsiella pneumoniae, Acinetobacter baumannii, E. coli, Pseudomonas aeruginosa and Salmonella typhimurium, as well as additional gram positive bacteria, including drug-resistant strains, was tested according to the procedures provided under “General Methodologies” above.

S. aureus ATCC 29123 = assay: Neutropenic mouse Staphylococcus aureus thigh infection model; assay type: in vivo; details: for median CFU/thigh: 24 h endpoint
Experimental: The antimicrobial activity of compound 178 against S. aureus ATCC 29123 was tested in vivo using the neutropenic mouse Staphylococcus aureus thigh infection model. […] Animals were individually monitored for adverse reactions for 30 min post-infection. […] Vancomycin was administered as a solution in PBS. The test compounds were administered as outlined in Table 12 at 2 and 8 hours post-infection and animals were individually monitored for adverse reactions for 30 min after each injection. All animals were then monitored hourly from 20 hours post infection to the endpoint (t=24 hr post infection). At the indicated timepoint, animals were sacrificed and the injected thigh collected. Quantitative enumeration of bacterial load was determined by plating serial dilutions from homogenized thigh muscles. Homogenized muscle was in a total of 2 mL volume, from which a 1 in 10 dilution was prepared (100 μL into 900 μL saline). From this a series of dilutions were prepared and plated on Mueller Hinton agar plates. […] At the end of this time colony counts were determined and the final CFU per mL calculated.

[1] = Tables 1-6, 2 mM ADP, 10 mM PEP, 15 nM PK, read-out: IC50

T1 sequence (Q6GG09 whole entry): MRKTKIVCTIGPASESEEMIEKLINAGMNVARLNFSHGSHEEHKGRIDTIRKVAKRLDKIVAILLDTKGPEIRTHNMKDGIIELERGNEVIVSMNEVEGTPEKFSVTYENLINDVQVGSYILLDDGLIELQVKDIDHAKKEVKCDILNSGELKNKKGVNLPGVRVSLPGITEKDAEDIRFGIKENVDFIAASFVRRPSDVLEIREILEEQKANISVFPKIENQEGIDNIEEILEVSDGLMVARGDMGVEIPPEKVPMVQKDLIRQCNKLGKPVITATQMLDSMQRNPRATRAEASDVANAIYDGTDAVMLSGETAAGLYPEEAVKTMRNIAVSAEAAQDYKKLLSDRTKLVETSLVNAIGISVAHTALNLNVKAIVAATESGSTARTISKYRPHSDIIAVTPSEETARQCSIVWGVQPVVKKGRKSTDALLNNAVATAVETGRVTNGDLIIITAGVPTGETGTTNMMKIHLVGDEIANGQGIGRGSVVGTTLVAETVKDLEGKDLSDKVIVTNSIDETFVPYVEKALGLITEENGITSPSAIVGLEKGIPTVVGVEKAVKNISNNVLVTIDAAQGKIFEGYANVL

SMILES	IC50 (MRSA PK; [1])	inhibition at 10 µM (MRSA PK) [%]	melting point [°C]	other results
OCCn1c(-c2cc3ccc(Br)cc3[nH]2)cc2cc(Br)ccc21 [Compound 17, 2-(5,6′-Dibromo-1H, 1′H-[2,2′-biindol]-1-yl)ethanol]	1.3 nM	101		
Brc1ccc2cc(-c3cc4cc(Br)c(Br)cc4[nH]3)[nH]c2c1 [Compound 10k, 5,6,6′-Tribromo-1H,1′H-2,2′-biindole]	1.5 nM	94.1		
Brc1ccc2cc(-c3nc4ccccc4s3)[nH]c2c1 [Compound 22a, 2-(6-Bromo-1H-indol-2-yl)benzo[d]thiazole]	152 nM	89.8		
Brc1ccc2cc(CCc3cc4ccc(Br)cc4[nH]3)[nH]c2c1 [Compound 28a, 1,2-bis(6-bromo-1H-indol-2-yl)ethane]	6 nM and 6.5 nM	93.4		
Brc1ccc2cc(/C=C/c3cc4ccccc4[nH]3)[nH]c2c1 [Compound 27a, (E)-2-(2-(1H-indol-2-yl)vinyl)-6-bromo-1H-indole]	4.5 nM	93.4		
Brc1ccc2c(c1)cc(-c1cc3ccc(Br)cc3[nH]1)n2CCN1CCOCC1 [Compound 20b, 4-(2-(5,6′-dibromo-1H,1′H-[2,2′-biindol]-1-yl)ethyl)morpholine]	1.2 nM	101		
Brc1ccc2[nH]c(C#Cc3cc4ccc(Br)cc4[nH]3)cc2c1 [Compound 25c, 6-Bromo-2-((5-bromo-1H-indol-2-yl)ethynyl)-1H-indole]	4.7 nM	86.3	236 to 237	
Brc1cc2cc(-c3cc4cc(Br)c(Br)cc4[nH]3)[nH]c2cc1Br [Compound 10l, 5,5′,6,6′-Tetrabromo-1H,1′H-2,2′-biindole]	2 nM	97.6		
Cn1c(-c2cc3ccc(Br)cc3[nH]2)cc2cc(Br)ccc21 [Compound 12a, 5,6′-Dibromo-1-methyl-1H,1′H-2,2′-biindole]	1 nM	99	180 to 182	
Brc1ccc2[nH]c(-c3cc4cc(Br)ccc4[nH]3)cc2c1 [Compound 10i, 5,5′-Bibromo-1H,1′H-2,2′-biindole]	3 nM	71	304 to 306	
Brc1ccc2[nH]c(-c3cc4ccc(Br)cc4[nH]3)cc2c1 [Compound 10c, 5,6-Bibromo-1H,1′H-2,2′-biiindole]	2.2 nM	97.8	270 to 272	
COc1cc(-c2cc3ccccc3[nH]2)ccc1-c1cc2ccc(Br)cc2[nH]1 [Compound 33e, 2-(4-(1H-indol-2-yl)-2-methoxyphenyl)-6-bromo-1H-indole]	2.1 nM	62.2		
O=C(c1c(-c2cc3cc(Cl)ccc3[nH]2)[nH]c2cc(Br)ccc12)C(F)(F)F [Compound 178, 1-(6-bromo-5′-chloro-1H,1′H-[2,2′-biindol]-3-yl)-2,2,2-trifluoroethan-1-one]				MIC (VRE#2 (2010A)): 1 µg/mL (≈ 2.26 µM); log reduction in median counts for CFU/thigh (S. aureus ATCC 29123; all treated groups vs untreated control): ≥ 1 log; median CFU/thigh (S. aureus ATCC 29123; group 3, 3 mg/kg IV at 2 and 8 h): 8.27×10^6 CFU/thigh; median CFU/thigh (S. aureus ATCC 29123; group 4, 10 mg/kg IV at 2 and 8 h): 1.38×10^3 CFU/thigh; median CFU/thigh (S. aureus ATCC 29123; group 5, PO 10 mg/kg at 2 and 8 h): 1.2×10^2 CFU/thigh; log reduction in median counts (S. aureus ATCC 29123; group 5, PO 10 mg/kg vs untreated control): 6 log; CFU/thigh of one mouse dosed only once (S. aureus ATCC 29123; group 5, PO 10 mg/kg, single dose): 2.2×10^2 CFU/thigh; IC50 (MRSA PK): < 50 nM
Brc1ccc2cc(-c3cc4ccc(Br)cc4[nH]3)[nH]c2c1 [Compound 10b, 6,6′-Dibromo-1H,1′H-2,2′-biindole]	7 nM	84.9	266 to 267	
CN1CCN(CCn2c(-c3cc4ccc(Br)cc4[nH]3)cc3cc(Br)ccc32)CC1 [Compound 20a, 5,6′-Dibromo-1-(2-(4-methylpiperazin-1-yl)ethyl)-1H,1′H-2,2′-biindole]	2 nM	100	140	
Brc1ccc2cc(-c3cc4ccccc4o3)[nH]c2c1 [Compound 22b, 2-(Benzofuran-2-yl)-6-bromo-1H-indole]	108 nM	95.9	196 to 198	
